Laboratory results: patent publication US9012404B2, “Compositions and methods for cardiac tissue protection and regeneration” (3D Matrix, Inc., priority 2006, dated 2015)
Entries after “also recorded” stand apart in the source; their conditions may differ.

Legend:
[1] = test system: rabbits; details: rabbit, in vivo
Procedure: A 0.5% w/v peptide CardioMatrix solution was extracted in NaCl and CSO at a ratio of 0.2 gm per 1.0 mL at 70±2° C. for 24 hours. […] Three rabbits were injected intracutaneously, using one side of the animal for the test article extracts and the other side for the control extracts, at 0.2 mL per site. The injected sites were examined at 24, 48, and 72 hours post inoculation for gross evidence of tissue reaction such as erythema, edema, and necrosis. A Primary Irritation Index of 0.5 or less will be considered a negligible irritant, where 0.5 to <2 are slight irritants, 2 to <5 are moderate irritants, and >5 are severe irritants.

[2] = set-up: species or system Sprague Dawley rats; details: rat, in vivo
Text: To measure the local and whole animal distribution a 14C, carbon radiolabeled version of a Cardiomatrix was generated. The radiolabeled version was internally labeled at the third alanine site (Acetyl-(RADA)-(R-[^14C(U)-Ala]-D-A)-(RADA)2-CONH2) as opposed to a labeled acetyl group which could be cleaved off, in order to better characterize the adsorption, degradation, metabolism and excretion (ADME) of the CardioMatrix material in vivo. The radiolabeled material was then implanted into Sprague Dawley rats in a femur defect model. Urine and stool samples were collected and the radioactivity was counted.

[3] = test system: rabbits; test: Rabbit Pyrogenicity (ISO-10993-11); type: in vivo; details: intravenous injection of extract at 10 mL/kg
Procedure: The purpose of the test was to detect the risk of a patient to a febrile reaction as a result of the administration of the test article extract. The test article was prepared by mixing 9 ml of the test article with 9 mL of 0.9% USP Sodium Chloride for Injection (NaCl) and the resulting gel extracted at a ration of 0.2 gm per 1.0 mL. The test article extract was administered by intravenous injection at 10 mL/kg. The rectal temperatures of the injected rabbits were compared with the temperature of a control rabbit similarly injected with 0.9% USP Sodium Chloride for Injection (NaCl). The base-line temperatures of the rabbits, determined no more than 30 minutes prior to injection of the test article extract, were used to exclude rabbits whose body temperatures vary by more than 1° C. from each other and whose temperatures are greater than 39.8° C. Body temperatures were recorded at 30 minute intervals between 1 and 3 hours subsequent to injection.

[4] = test system: rabbit blood (red blood cells); test: Hemolysis: Direct Contact (ISO 10993-4); type: cell-based; details: rabbit blood in direct contact, triplicate
Text: (§1) Standard in vitro toxicology studies, including EN/ISO tests for cytotoxicity and hemocompatibility, have been completed. The tests below were completed at a FDA certified toxicology testing company (Toxikon Corp, Bedford, Mass.) using established standards of measure on a CardioMatrix material (Tables 3 and 4). The CardioMatrix solution tested in this example comprised various concentrations of CardioMatrix powder in substantially sucrose free aqueous solution.
The hemolysis test (Direct Contact, ISO-10993-4) measures the ability of a material to cause red blood cells to rupture. This test is derived from well-established NIH protocols and is performed in triplicate. This test uses rabbit blood in direct contact with the test material and the degree of hemolysis is measured spectrophotometrically.

[5] = test system: L929 mouse fibroblast cell culture; test: Cytotoxicity: Agar Diffusion ISO 10993-5; type: cell-based; details: L929 mouse fibroblast monolayer
Text: as §1
The Agar Diffusion test (ISO 10993-5) measures a material's effect on cell cultures, which are extremely sensitive to minute quantities of leachable chemicals and readily display characteristic signs of toxicity in the presence of potentially harmful leachables. The biological reactivity of a mammalian monolayer, L929 mouse fibroblast cell culture, in response to the test article was determined as “no-reactivity” in tests.

[6] = test system: paravertebral muscle of New Zealand white rabbits; details: in vivo
Text: This test assesses the local effects of material on contact with living tissue. Test article was implanted into paravertebral muscle of 3 New Zealand white rabbits, with negative control (GelFoam) implanted in the contralateral muscle of each animal. Healing was allowed for 2 weeks. Animals were sacrificed and implants excised. Excised implants were examined macroscopically with a magnifying lens and fixed in formalin. Histologic slides of hematoxylin and eosin (H&E) and Mason's Trichrome stained sections were prepared, studied microscopically by a board-certified veterinary pathologist, and evaluated on a scale of 0-3. CardioMatrix implants retained the initial implant volume, collagen fibers, and vascularization of the injection site.

[7] = test system: prothrombin coagulation time of human plasma; test: Prothrombin Time Assay, Human Plasma (ISO 10993-4)
Text: as §1
Prothrombin Time (Human Plasma, ISO 10993-4) measures the effect of a test article extract on human blood coagulation time. This assay has become a suitable clinical means of determining the presence and functioning ability of prothrombin in the process of coagulation.

Time until degraded and excreted [2]: ≤ 28 days | Initiation of coagulation cascades (hemocompatibility tests) ([7]; direct contact with blood and plasma): do not initiate coagulation cascades
SMILES: CC(=O)N[C@@H](CCCNC(=N)N)C(=O)N[C@@H](C)C(=O)N[C@@H](CC(=O)O)C(=O)N[C@@H](C)C(=O)N[C@@H](CCCNC(=N)N)C(=O)N[C@@H](C)C(=O)N[C@@H](CC(=O)O)C(=O)N[C@@H](C)C(=O)N[C@@H](CCCNC(=N)N)C(=O)N[C@@H](C)C(=O)N[C@@H](CC(=O)O)C(=O)N[C@@H](C)C(=O)N[C@@H](CCCNC(=N)N)C(=O)N[C@@H](C)C(=O)N[C@@H](CC(=O)O)C(=O)N[C@@H](C)C(N)=O [CardioMatrix, RADARADARADARADA]
Irritant class by Primary Irritation Index [1]: “Negligible” | Signs of erythema or edema at injected sites [1]: did not exhibit signs of erythema or edema | Rabbit pyrogenicity, febrile reaction [3]: None of the animals injected with the test article extract exhibited signs of pyrogenic response; also recorded: No effect on animals; also recorded: No febrile reaction from any animal | Hemolysis: Direct Contact [4]: Non-hemolytic | Cytotoxicity: Agar Diffusion, biological reactivity [5]: no-reactivity; also recorded: Non-cytotoxic | Rabbit Muscle Implant toxicity score [6]: 0.13 | Effect on prothrombin coagulation time ([7]; test article extract, human plasma): did not have an adverse effect
